Data on 27 compounds can be found in patent publication US4654368A, “Tri-organotin silatrane derivatives and pesticidal compositions, fungicides or antifouling agents comprising said compounds as active ingredients” (Nitto Kasei Co., Ltd., priority 1984, dated 1987).

Type in all cases: in vivo
Data set [1] deals with carmine mites (Tetranychus telarius L.). The data set can be described thus: Miticidal effect on carmine mites. The arrangement: key: -: Hardly any injury was observed.; +: Some injury was observed.; ++: The same injury as in the non-treated area was noted. The note with it: 500 ppm active ingredient, spray plus soil, kidney beans, 8 days later. The procedure: Female imagoes of carmine mites were caused to live at a rate of 10 per leaf on bineless kidney beans (in the primary leaf stage) in pots 7 days after sowing, and kept in a constant temperature chamber at 25° C. Six days later, a chemical obtained by diluting a wettable powder of each of compounds Nos. 4-6, 9-13, 15, 16, 21, 22, 25, 28-30, 33, 34, 36, 37 and 38 with water to an active ingredient concentration of 500 ppm was sprayed at a rate of 10 ml per pot, and at the same time, 2 ml of the chemical was poured into the soil. Eight days later, injuries to the plants by the mites were examined.
The degree of injury is shown by -, + and ++ as follows: […]

The subject of data set [2] is Culex pipiens. The data set can be described thus: Test on insecticidal effect on Culex pipiens. Conditions: 3.5 ppm, wettable powder of Formulation Example 5 (contains Fenitrothion); for Death rate: final-instar larvae, next day, 1440 min; for Emergence inhibition rate: when all larvae in non-treated area emerged. How it is done: A wettable powder of each of compounds Nos. 2, 7, 8, 11, 13, 14, 17, 18 and 31 obtained in accordance with Formulation Example 5 was diluted with water to 3.5 ppm. One hundred milliliters of the dilution was put in each of 180 ml. polyethylene cups and 20 final-instar larvae of Culex pipiens were released into the cup. On the next day, the larvae were examined for mortality.
Thereafter, feeds were added to the test areas, and when all larvae n the non-treated area emerged, the emergence inhibition rate was examined.
The death rate and the emergence inhibition rate were rated by three grades as follows: […]

The test system of data set [3] is tobacco cutworms (Prodenia litura Fabrficius). The data set can be described thus: Test on insecticidal efficacy on tobacco cutworms. The note with it: 500 ppm in artificial feed, 4th-instar larvae, 6 days; wettable powder of Formulation Example 5 (contains Fenitrothion). How it is done: A wettable powder of each of compounds Nos. 3, 7, 8, 9, 11, 12, 13, 14, 17, 18 and 31 of the invention obtained in accordance with Formulation Example 5 was diluted with water to 200 times (corresponding to a concentration of 500 ppm). Two milliliters of the dilution was impregnated in 13 g of an artificial feed for tobacco cutworms, and the feed was put in a polyethylene cup having a diameter of 11 cm. Ten 4th-instar larvae of tobacco cutworms were released into the cup, and examined for mortality 6 days later. The above experiment was carried out through two replicates.

For data set [4], the system named is Plasmopara viticola. The data set can be described thus: Test on fungicidal effect on downy mildew of grape. The note with it: sprayed on grape seedlings. The text has this:
Sandy soil was filled in plastic pots, and seeds of grape (variety: Neomuscat) were sown, and grown for about 1 month in a greenhouse to obtain young seedlings of grape in the 2-3 leaf stage. A water dilution of an emulsifiable concentrate of a wettable powder of each of the test compounds was sprayed onto the leaves of these seedlings so that the chemical adhered fully to the surfaces of the leaves. After drying the chemical in air, a suspension of conidospores of a […] pathogen of grape (Plasmopara viticola) was inoculated in the seedling by spraying. The seedlings were placed for 2 days in a high humidity condition at 23° C., and subsequently cultivated for 14 days in a greenhouse kept at 20° to 25° C. to cause onset of the disease. Thereafter, the state of the disease was observed.
The degree of disease was calculated by the following method. The examined leaves were classified by indices of 0, 0.5, 1, 2 and 4 according to the degrees of appearance of lesions, and the degree of disease was calculated from the following equation.
0: No fungus colony or lesion was noted on the surface of the leaves.
The control index was calculated from the following equation. [formula]

In data set [5] the test system is marine animals and plants. Briefly: Test on antifouling effects on marine animals and plants in the sea. The note with it: Owase Bay; for Fouled state, period of submerging 4 months / Fouled state, period of submerging 8 months / Fouled state, period of submerging 12 months: antifouling paint on vinyl chloride plate. The procedure:
A ship bottom antifouling paint was prepared by adding 24 g of Rosin WW, 12 g of a vinyl copolymer, 4 g of tricresyl phosphate, 10 g of bentonite, 20 g of baryta, 20 g of red iron oxide, 35 g of xylene and 35 g of methyl isobutyl ketone to 40 g of each of compounds Nos. 2, 8, 14, 17, 20 and 32 of the invention and vigorously stirring the mixture at room temperature for 1 hour. The paint was coated on both surfaces of a rigid vinyl chloride resin plate, 17×9×0.3 cm in size, to a dry thickness of about 200 microns. The coated plate was submerged in the sea in Owase Bay, Mie Prefecture, Japan for 12 months, and its fouled state was regularly observed.
The symbols in the table show the following.

As to `CCCCCCC[CH2][Sn]([CH2]CCCCCCC)([CH2]CCCCCCC)[S]CCC[Si]12OCCN(CCO1)CCO2` [compound 29], in data set [1], the Degree of injury result is reported as “-~+”.

In the case of `C1CC[CH]([Sn]([S]CCC[Si]23OCCN(CCO2)CCO3)([CH]2CCCCC2)[CH]2CCCCC2)CC1` [compound 13], in data set [2], the Death rate result is “A (90% or higher)” and the Emergence inhibition rate result is reported as “A (90% or higher)”. Also, the Degree of injury result in data set [1] is “-”. This compound had a Death rate in data set [3] of 100%.

Turning to `CCC1CN2CCO[Si](CCC[S][Sn]([CH2]C(C)(C)c3ccccc3)([CH2]C(C)(C)c3ccccc3)[CH2]C(C)(C)c3ccccc3)(OCC2)O1` (centres unmarked) [compound 33], the Degree of injury result in data set [1] is given as “-”.

For `CCCCCCC[CH2][Sn]([CH2]CCCCCCC)([CH2]CCCCCCC)[S]CCC[Si]12OCCN(CCO1)CCO2` [compound 15], the Degree of injury result in data set [1] is on record as “-”.

`CC1CN2CC(C)O[Si](CCC[S][Sn]([c]3ccccc3)([c]3ccccc3)[c]3ccccc3)(O1)OC(C)C2` (centres unmarked) [compound 9, 1-(3-triphenylstannylthiopropyl)-3,7,10-trimethylsilatrane]: the Control index is 98% in data set [4] (12.5 ppm active ingredient), 100% in data set [4] (50 ppm active ingredient) and 100% in data set [4] (200 ppm active ingredient). For the same compound, the Degree of injury entry in data set [1] is “-”. In data set [3], the Death rate was determined as 100%.

Consider `CCCCCCC[CH2][Sn]([CH2]CCCCCCC)([CH2]CCCCCCC)[S]CCC[Si]12OC(C)CN(CC(C)O1)CC(C)O2` (centres unmarked) [compound 30], for which the Degree of injury result in data set [1] is on record as “-”.

Consider `CC(C)([CH2][Sn]([CH2]C(C)(C)c1ccccc1)([CH2]C(C)(C)c1ccccc1)[S]CC[Si]12OCCN(CCO1)CCO2)c1ccccc1` [compound 5], for which the Degree of injury entry in data set [1] was “-~+”.

`CC1CN2CC(C)O[Si](CCC[S][Sn]([CH2]C(C)(C)c3ccccc3)([CH2]C(C)(C)c3ccccc3)[CH2]C(C)(C)c3ccccc3)(O1)OC(C)C2` (centres unmarked) [compound 10]: the Degree of injury entry in data set [1] is given as “-”.

Consider `CCC1CN2CCO[Si](CCC[S][Sn]([CH2]C(C)C)([CH2]C(C)C)[CH2]C(C)C)(O1)OC(CC)C2` (centres unmarked) [compound 28], for which the Degree of injury result in data set [1] is “-”.

For `c1cc[c]([Sn]([S]CCC[Si]23OCCN(CCO2)CCO3)([c]2ccccc2)[c]2ccccc2)cc1` [compound 1], the Control index is listed as 97% in data set [4] (12.5 ppm active ingredient), 100% in data set [4] (50 ppm active ingredient) and 100% in data set [4] (200 ppm active ingredient).

With `CCCCCCC[CH2][Sn]([CH2]CCCCCCC)([CH2]CCCCCCC)[S]CCC[Si]12OC(C)CN(CC(C)O1)CC(C)O2` (centres unmarked) [compound 16], the Degree of injury entry in data set [1] is reported as “-”.

Turning to `CCC1CN2CCO[Si](CCC[S][Sn]([CH]3CCCCC3)([CH]3CCCCC3)[CH]3CCCCC3)(OCC2)O1` (centres unmarked) [compound 36], the Degree of injury result in data set [1] is “-~+”.

In the case of `CCC1CN2CCO[Si](CCC[S][Sn]([c]3ccccc3)([c]3ccccc3)[c]3ccccc3)(OCC2)O1` (centres unmarked) [compound 31], in data set [2], the Death rate result is “B (less than 90% to 10%)” and the Emergence inhibition rate result is recorded as “A (90% or higher)”. The same compound returned a Death rate in data set [3] of 100%.

For `CCC1CN2CC(C)O[Si](CCC[S][Sn]([CH2]C(C)(C)c3ccccc3)([CH2]C(C)(C)c3ccccc3)[CH2]C(C)(C)c3ccccc3)(OC(C)C2)O1` (centres unmarked) [compound 34], the Degree of injury entry in data set [1] is given as “-”.

Regarding `CCC[CH2][Sn]([CH2]CCC)([CH2]CCC)[S]CCC[Si]12OCCN(CCO1)CC(CC)O2` (centres unmarked) [compound 25], in data set [1], the Degree of injury entry was “-~+”.

As to `CCC1CN2CCO[Si](CCC[S][Sn]([CH]3CCCCC3)([CH]3CCCCC3)[CH]3CCCCC3)(O1)OC(CC)C2` (centres unmarked) [compound 22], the Degree of injury entry in data set [1] was “-~+”.

Consider `CCC1CN2CCO[Si](CCC[S][Sn]([CH2]C(C)(C)c3ccccc3)([CH2]C(C)(C)c3ccccc3)[CH2]C(C)(C)c3ccccc3)(O1)OC(CC)C2` (centres unmarked) [compound 21], for which, in data set [1], the Degree of injury entry is given as “-”.

`C1CC[CH]([Sn]([S]CC[Si]23OCCN(CCO2)CCO3)([CH]2CCCCC2)[CH]2CCCCC2)CC1` [compound 7]: in data set [2], the Death rate result is “C (less than 10%)” and the Emergence inhibition rate result is “A (90% or higher)”. Besides, the Death rate in data set [3] came to 100%.

Regarding `CCC1CN2CCO[Si](CCC[S][Sn]([c]3ccccc3)([c]3ccccc3)[c]3ccccc3)(O1)OC(CC)C2` (centres unmarked) [compound 20], in data set [5], the “Fouled state, period of submerging 4 months” value is reported as “.circle”; the “Fouled state, period of submerging 8 months” value is “.circle”; the “Fouled state, period of submerging 12 months” value was “Δ (Marine animals and plants adhered to less than 5% of the area of the coated film)”. Further, in data set [5] (antifouling paint, up to 12 months), the “Fouled by” value is reported as “Algae”.

For `CC1CN2CC(C)O[Si](CCC[S][Sn]([CH]3CCCCC3)([CH]3CCCCC3)[CH]3CCCCC3)(O1)OC(C)C2` (centres unmarked) [compound 11], the figures for the Death rate result in data set [2] and in data set [3] were “B (less than 90% to 10%)” and 100%, respectively. The Emergence inhibition rate entry in data set [2] is reported as “A (90% or higher)”. The Control index in data set [4] (12.5 ppm active ingredient) is reported as 96%; in data set [4] (50 ppm active ingredient), 100%; in data set [4] (200 ppm active ingredient), 100%. Besides, the Degree of injury result in data set [1] is reported as “-”.

On to `CCC1CN2CC(C)O[Si](CCC[S][Sn]([CH]3CCCCC3)([CH]3CCCCC3)[CH]3CCCCC3)(OC(C)C2)O1` (centres unmarked) [compound 37], for which the Degree of injury entry in data set [1] is “-”.

For the compound `CC(C)([CH2][Sn]([CH2]C(C)(C)c1ccccc1)([CH2]C(C)(C)c1ccccc1)[S]CCC[Si]12OCCN(CCO1)CCO2)c1ccccc1` [compound 4, 1-(3-trineophylstannylthiopropyl)silatrane], in data set [1], the Degree of injury entry is listed as “-”.

As to `CC(C)(C)[CH2][Sn]([CH2]C(C)(C)C)([CH2]C(C)(C)C)[S]CC[Si]12OCCN(CCO1)CCO2` [compound 38], in data set [1], the Degree of injury result was “-”.

Consider `CC1CN2CC(C)O[Si](CC[S][Sn]([CH2]C(C)(C)c3ccccc3)([CH2]C(C)(C)c3ccccc3)[CH2]C(C)(C)c3ccccc3)(O1)OC(C)C2` (centres unmarked) [compound 6], for which, in data set [1], the Degree of injury result is “-~+”.

As for `c1cc[c]([Sn]([S]CC[Si]23OCCN(CCO2)CCO3)([c]2ccccc2)[c]2ccccc2)cc1` [compound 2, 1-(2-triphenylstannylthioethyl)silatrane], in data set [2], the Death rate result is “B (less than 90% to 10%)” and the Emergence inhibition rate result was “A (90% or higher)”. Also, in data set [5], the “Fouled state, period of submerging 4 months” value was “.circle”; the “Fouled state, period of submerging 8 months” value is reported as “.circle”; the “Fouled state, period of submerging 12 months” value was “.circle”.

On to `CC1CN2CC(C)O[Si](CC[S][Sn]([c]3ccccc3)([c]3ccccc3)[c]3ccccc3)(O1)OC(C)C2` (centres unmarked) [compound 3], for which the Control index in data set [4] (12.5 ppm active ingredient) is listed as 98%; in data set [4] (50 ppm active ingredient) it was 100%; in data set [4] (200 ppm active ingredient), 100%. In addition, the Death rate in data set [3] was found to be 100%.

Take `CCO[PH](=O)O` [reference compound]: the Control index in data set [4] (200 ppm active ingredient) stood at 68%.
